System: anesthetized open-chest dogs
Assay: Hemodynamics of anesthetized open-chest dogs, intravenous infusion
Assay type: in vivo, mongrel dogs
Experimental: The animals were anesthetized by intravenous injection of 30 mg/kg sodium pentobarbital, tracheally intubated, and mechanically ventilated with positive air pressure. Left thoracotomy was performed through the fourth intercostal space and the heart was suspended in a pericardial cradle, the aortic root was isolated and a probe of blood flow meter (12 or 14 mm in diameter) was fixed to measure the aortic blood flow as a representation of cardiac output (CO), the circumflex branch of left coronary artery was isolated and a probe of blood flow meter (2 or 2.5 mm in diameter) was fixed to measure the coronary blood flow (CBF). A polyethylene catheter filled with heparin physiological saline was inserted through cardiac apex into the left ventricle to measure the left ventricular pressure (LVP) and left ventricular end-diastolic pressure (LVEDP), Peak positive and peak negative first derivatives of the LVP (+ LVdp/dt and − LVdp/dt) were calculated with the Acknowledge software. The systolic blood pressure (SBP), diastolic blood pressure (DBP) and mean arterial pressure (MAP) were measured by polyethylene catheter via the femoral artery, ECG □ was measured by a AC-601G ECG amplifier. The above-mentioned analog signal was input into a data acquisition workstation (MP100, BIOPAC Systems, USA) to a computer running Acknowledge (version 3.7.1).
After surgery, various indexes before administration were recorded until the indexes were stable, and then intravenous infusion administration was conducted. Thirty dogs were divided into five groups (six dogs in each group), the experiment groups were given 0.15, 0.3, 0.6 mg/kg of ASP-[…] respectively, the normal control group was given 1 ml/kg of solvent, and the positive control group was given 0.3 mg/kg of astragaloside IV. The delivery volumes were 15 ml for each dog was and the delivery velocity was 1 ml/min. The indexes were recorded at 5, 10, 15, 20, 30, 45, 60, 90 and 120 mins after drug administration. At the end of experiment, the hearts were excised and weighted. The myocardial blood flow for per hectogram (CF), coronary resistance (CR), cardiac index (CI), left ventricular work (LVW) and total peripheral resistance (TPR) were calculated according to the following formulae: CF=CBF×[…]/heart weight CR=MAP/CF CI=CO/0.11×(body weight)^2/3 LVW=CO×(MAP−5)×1.052×0.0136 TPR=MAP×79.92/CO
Data are expressed as mean±SD ( x±s), the paired t-test was used to compare the significance between before and after administration, the unpaired t-test was adopted for comparison between groups.

[1] = 0.15 mg/kg iv, 90 min after administration
[2] = 0.15 mg/kg iv, 120 min after administration
[3] = 0.15 mg/kg iv, before administration
[4] = 0.3 mg/kg iv, 5 min after administration
[5] = 0.3 mg/kg iv, 10 min after administration
[6] = 0.3 mg/kg iv, 15 min after administration
[7] = 0.3 mg/kg iv, 20 min after administration
[8] = 0.3 mg/kg iv, 30 min after administration

CC(C)(O)[C@@H]1CC[C@](C)([C@H]2[C@@H](O)C[C@@]3(C)C4C[C@H](OC5OC(CO)C(O)C(O)C5O)C5C(C)(C)[C@@H](O)CC[C@@]56C[C@@]46CC[C@]23C)O1 (stereo partly drawn) [CMG, Cycloastragenol-6-O-β-D-glucoside]
CO change vs before administration [1]: (−0.15 ± 0.24) L/min
CR [1]: 1.36 ± 0.37 mmHg/ml/min/100 g
CR change vs before administration [1]: (0.00 ± 0.24) mmHg/ml/min/100 g
LVEDP [1]: 1.4 ± 2.4 mmHg
LVEDP change vs before administration [1]: (−0.40 ± 0.43) mmHg
LVP [1]: 101 ± 18 mmHg
LVP change vs before administration [1]: (−3.5 ± 7.6) mmHg
LVW [1]: 0.96 ± 0.24 kg · m
LVW change vs before administration [1]: (−0.16 ± 0.34) kg · m
TPR [1]: 5576 ± 2153 dyn · s/cm^5
TPR change vs before administration [1]: (426 ± 770) dyn · s/cm^5
dp/dt [1]: 1121 ± 412 mmHg/s
dp/dt change vs before administration [1]: (−28 ± 90) mmHg/s
−dp/dt [1]: −857 ± 243 mmHg/s
−dp/dt change vs before administration [1]: (31 ± 128) mmHg/s
CF [2]: 56.5 ± 16.6 ml/min/100 g
CF change vs before administration [2]: (−1.2 ± 13.7) ml/min/100 g
CI [2]: 1.79 ± 0.37 L/min/m^2
CI change vs before administration [2]: (−0.29 ± 0.45) L/min/m^2
CO [2]: 1.03 ± 0.19 L/min
CO change vs before administration [2]: (−0.17 ± 0.28) L/min
CR [2]: 1.35 ± 0.44 mmHg/ml/min/100 g
CR change vs before administration [2]: (−0.01 ± 0.25) mmHg/ml/min/100 g
LVEDP [2]: 1.6 ± 2.3 mmHg
LVEDP change vs before administration [2]: (−0.15 ± 0.44) mmHg
LVP [2]: 103 ± 22 mmHg
LVP change vs before administration [2]: (−1.8 ± 8.1) mmHg
LVW [2]: 0.99 ± 0.36 kg · m
LVW change vs before administration [2]: (−0.13 ± 0.37) kg · m
TPR [2]: 5734 ± 1774 dyn · s/cm^5
TPR change vs before administration [2]: (584 ± 1030) dyn · s/cm^5
dp/dt [2]: 1138 ± 387 mmHg/s
dp/dt change vs before administration [2]: (−11 ± 92) mmHg/s
−dp/dt [2]: −897 ± 263 mmHg/s
−dp/dt change vs before administration [2]: (−9 ± 176) mmHg/s
CF [3]: 57.7 ± 24.1 ml/min/100 g
CI [3]: 2.08 ± 0.63 L/min/m^2
CO [3]: 1.21 ± 0.38 L/min
CR [3]: 1.35 ± 0.44 mmHg/ml/min/100 g
LVEDP [3]: 1.8 ± 2.2 mmHg
LVP [3]: 105 ± 22 mmHg
LVW [3]: 1.12 ± 0.42 kg · m
TPR [3]: 5150 ± 2321 dyn · s/cm^5
dp/dt [3]: 1150 ± 391 mmHg/s
−dp/dt [3]: −888 ± 310 mmHg/s
±LVdp/dtmax (0.15 mg/kg iv, within 120 min): no significant change
LVEDP maximum decrease (0.3 mg/kg iv): 1.5±0.8 mmHg
CF [4]: 51.7 ± 20.7 ml/min/100 g
CF change vs before administration [4]: (1.5 ± 5.3) ml/min/100 g
CI [4]: 2.09 ± 0.86 L/min/m^2
CI change vs before administration [4]: (0.11 ± 0.16) L/min/m^2
CO [4]: 1.16 ± 0.39 L/min
CO change vs before administration [4]: (0.06 ± 0.09) L/min
CR [4]: 1.57 ± 0.74 mmHg/ml/min/100 g
CR change vs before administration [4]: (0.04 ± 0.17) mmHg/ml/min/100 g
LVEDP [4]: 1.3 ± 2.5 mmHg
LVEDP change vs before administration [4]: (−0.39 ± 0.38) mmHg
LVP [4]: 107 ± 21 mmHg
LVP change vs before administration [4]: (4.1 ± 4.9) mmHg
LVW [4]: 1.12 ± 0.49 kg · m
LVW change vs before administration [4]: (0.10 ± 0.07) kg · m
TPR [4]: 5248 ± 1878 dyn · s/cm^5
TPR change vs before administration [4]: (−52 ± 829) dyn · s/cm^5
dp/dt [4]: 1308 ± 448 mmHg/s
dp/dt change vs before administration [4]: (47 ± 34) mmHg/s
−dp/dt [4]: −958 ± 313 mmHg/s
−dp/dt change vs before administration [4]: (−37 ± 44) mmHg/s
CF [5]: 53.5 ± 21.1 ml/min/100 g
CF change vs before administration [5]: (3.3 ± 3.2) ml/min/100 g
CI [5]: 1.96 ± 0.85 L/min/m^2
CI change vs before administration [5]: (−0.03 ± 0.23) L/min/m^2
CO [5]: 1.09 ± 0.39 L/min
CO change vs before administration [5]: (−0.01 ± 0.14) L/min
CR [5]: 1.50 ± 0.71 mmHg/ml/min/100 g
CR change vs before administration [5]: (−0.03 ± 0.12) mmHg/ml/min/100 g
LVEDP [5]: 1 ± 2.4 mmHg
LVEDP change vs before administration [5]: (−0.75 ± 0.34) mmHg
LVP [5]: 106 ± 22 mmHg
LVP change vs before administration [5]: (2.3 ± 6.9) mmHg
LVW [5]: 1.02 ± 0.44 kg · m
LVW change vs before administration [5]: (0.00 ± 0.15) kg · m
TPR [5]: 5683 ± 2354 dyn · s/cm^5
TPR change vs before administration [5]: (384 ± 1293) dyn · s/cm^5
dp/dt [5]: 1358 ± 444 mmHg/s
dp/dt change vs before administration [5]: (97 ± 68) mmHg/s
−dp/dt [5]: −925 ± 299 mmHg/s
−dp/dt change vs before administration [5]: (−4 ± 80) mmHg/s
CF [6]: 51.3 ± 21.1 ml/min/100 g
CF change vs before administration [6]: (1.1 ± 4.2) ml/min/100 g
CI [6]: 1.98 ± 0.84 L/min/m^2
CI change vs before administration [6]: (−0.01 ± 0.28) L/min/m^2
CO [6]: 1.10 ± 0.38 L/min
CO change vs before administration [6]: (0.00 ± 0.17) L/min
CR [6]: 1.56 ± 0.76 mmHg/ml/min/100 g
CR change vs before administration [6]: (0.02 ± 0.15) mmHg/ml/min/100 g
LVEDP [6]: 0.7 ± 2.6 mmHg
LVEDP change vs before administration [6]: (−1.06 ± 0.54) mmHg
LVP [6]: 106 ± 20 mmHg
LVP change vs before administration [6]: (2.3 ± 5.4) mmHg
LVW [6]: 1.02 ± 0.44 kg · m
LVW change vs before administration [6]: (0.00 ± 0.16) kg · m
TPR [6]: 5535 ± 2356 dyn · s/cm^5
TPR change vs before administration [6]: (236 ± 1386) dyn · s/cm^5
dp/dt [6]: 1367 ± 470 mmHg/s
dp/dt change vs before administration [6]: (106 ± 54) mmHg/s
−dp/dt [6]: −947 ± 308 mmHg/s
−dp/dt change vs before administration [6]: (−25 ± 74) mmHg/s
CF [7]: 51.4 ± 19.2 ml/min/100 g
CF change vs before administration [7]: (1.2 ± 4.0) ml/min/100 g
CI [7]: 1.94 ± 0.81 L/min/m^2
CI change vs before administration [7]: (−0.04 ± 0.11) L/min/m^2
CO [7]: 1.08 ± 0.36 L/min
CO change vs before administration [7]: (−0.02 ± 0.06) L/min
CR [7]: 1.51 ± 0.68 mmHg/ml/min/100 g
CR change vs before administration [7]: (−0.02 ± 0.14) mmHg/ml/min/100 g
LVEDP [7]: 0.6 ± 2.5 mmHg
LVEDP change vs before administration [7]: (−1.16 ± 0.89) mmHg
LVP [7]: 104 ± 23 mmHg
LVP change vs before administration [7]: (1.2 ± 6.9) mmHg
LVW [7]: 1.02 ± 0.47 kg · m
LVW change vs before administration [7]: (0.00 ± 0.05) kg · m
TPR [7]: 5513 ± 1980 dyn · s/cm^5
TPR change vs before administration [7]: (214 ± 869) dyn · s/cm^5
dp/dt [7]: 1348 ± 487 mmHg/s
dp/dt change vs before administration [7]: (87 ± 77) mmHg/s
−dp/dt [7]: −937 ± 289 mmHg/s
−dp/dt change vs before administration [7]: (−16 ± 91) mmHg/s
CF [8]: 51.4 ± 24.5 ml/min/100 g
CF change vs before administration [8]: (1.2 ± 6.2) ml/min/100 g
CI [8]: 1.92 ± 0.78 L/min/m^2
CI change vs before administration [8]: (−0.06 ± 0.30) L/min/m^2
CO [8]: 1.07 ± 0.36 L/min
CO change vs before administration [8]: (−0.03 ± 0.18) L/min
CR [8]: 1.51 ± 0.74 mmHg/ml/min/100 g
CR change vs before administration [8]: (−0.02 ± 0.09) mmHg/ml/min/100 g
LVEDP [8]: 0.6 ± 2.4 mmHg
LVEDP change vs before administration [8]: (−1.11 ± 0.87) mmHg
LVP [8]: 102 ± 23 mmHg
LVP change vs before administration [8]: (−1.3 ± 4.7) mmHg
LVW [8]: 0.97 ± 0.46 kg · m
LVW change vs before administration [8]: (−0.05 ± 0.13) kg · m
TPR [8]: 5318 ± 2153 dyn · s/cm^5
TPR change vs before administration [8]: (19 ± 1444) dyn · s/cm^5
dp/dt [8]: 1304 ± 459 mmHg/s
dp/dt change vs before administration [8]: (43 ± 100) mmHg/s
−dp/dt [8]: −885 ± 293 mmHg/s

— patent US8835134B2, “Cycloastragenol monoglucoside, preparation, pharmaceutical composition and application thereof” (Tianjin Institute of Pharmaceutical Research, priority 2007, dated 2014)
